Data taken from patent US11179326B2, “Short duration depot formulations” (Durect Corporation, priority 2002, dated 2021).
Where a name gives a salt, the structure may show the parent alone.

What was measured:
[1] = Saturation concentration in de-ionized water; type: physicochemical; details: DI water
Method: Bupivacaine hydrochloride (Sigma-Aldrich Corporation, St. Louis, MO) was dissolved in de-ionized (DI) water at a concentration of 40 mg/ml (saturation). A calculated amount of sodium hydroxide (1 N solution) was added to the solution and the pH of the final mixtures was adjusted to 10 to precipitate the BP base. The precipitated product was filtered, and further washed with DI water for at least three times. The precipitated product was dried at approximately 40° C. in vacuum for 24 h.

[2] = reported value; cited from earlier work

SMILES	concentration in de-ionized water (saturation) [1]	solubility in water [2]
CCCCN1CCCCC1C(=O)Nc1c(C)cccc1C (centres unmarked) [Bupivacaine hydrochloride]	40000 µg/mL	
CC(=O)OCC(COC(C)=O)OC(C)=O [triacetin]		7.17 grams in 100 ml of water
